From ChEMBL document CHEMBL4715881, “ATB-targeted delivery of triptolide prodrugs for safer and more effective pancreatic cancer therapy” (Bioorg Med Chem Lett, 2021)
Active and inactive are the calls of the source. The rule behind the calls is not given here.

How the values were obtained:
[1] = Cytotoxicity against human HPDE cells assessed as reduction in cell viability by MTT assay; type: cell-based
[2] = Drug uptake in human ASPC1 cells in presence of glutamate; type: ADME, cell-based
[3] = Drug uptake in human ASPC1 cells; type: ADME, cell-based
[4] = Drug uptake in human ASPC1 cells assessed as Vmax measured at 10 mins; type: ADME, cell-based; conditions: aspc1, 10 min
[5] = Drug uptake in human MIA PaCa-2 cells in presence of alpha-Methyl-D,L-tryptophan; type: ADME, cell-based
[6] = Drug uptake in human ASPC1 cells in presence of lysine; type: ADME, cell-based
[7] = Drug uptake in human MIA PaCa-2 cells; type: ADME, cell-based
[8] = Drug uptake in human MIA PaCa-2 cells in presence of lysine; type: ADME, cell-based
[9] = Drug uptake in human MIA PaCa-2 cells in presence of glutamate; type: ADME, cell-based
[10] = Drug uptake in human MIA PaCa-2 cells assessed as Vmax measured at 10 mins; type: ADME, cell-based; conditions: mia paca-2, 10 min
MIA PaCa-2 [11] = test: Cytotoxicity against human MIA PaCa-2 cells assessed as reduction in cell viability by MTT assay; type: functional, cell-based
[12] = Drug uptake in human ASPC1 cells in presence of glycine; type: ADME, cell-based
ASPC1 [13] = test: Cytotoxicity against human ASPC1 cells assessed as reduction in cell viability pretreated with glycine for 30 mins by MTT assay; type: functional, cell-based
[14] = Stability in human ASPC1 cells homogenate assessed as half life; type: ADME, cell-based; conditions: ASPC1 cell homogenate
[15] = Drug uptake in human MIA PaCa-2 cells in presence of glycine; type: ADME, cell-based
[16] = Stability in rat liver homogenate assessed as half life; type: ADME, tissue-based
[17] = Drug uptake in human ASPC1 cells assessed as Km; type: ADME, cell-based
MIA PaCa-2 [18] = test: Cytotoxicity against human MIA PaCa-2 cells assessed as reduction in cell viability pretreated with glycine for 30 mins by MTT assay; type: functional, cell-based
[19] = Drug uptake in human ASPC1 cells in presence of alpha-Methyl-D,L-tryptophan; type: ADME, cell-based
[20] = Stability in rat plasma assessed as half life; type: ADME, cell-free
[21] = Drug uptake in human HPDE cells; type: ADME, cell-based
[22] = Drug uptake in human MIA PaCa-2 cells assessed as Km; type: ADME, cell-based
ASPC1 [23] = test: Cytotoxicity against human ASPC1 cells assessed as reduction in cell viability by MTT assay; type: functional, cell-based

Row | Compound | Activity [1] | Drug uptake [2] | Drug uptake [3] | Vmax [4] [nmol/mg] | Drug uptake [5] | Drug uptake [6] | Drug uptake [7] | Drug uptake [8] | Drug uptake [9] | Vmax [10] [nmol/mg] | Activity (MIA PaCa-2 [11]) | Drug uptake [12] | Activity (ASPC1 [13]) | half-life [14] [h] | Drug uptake [15] | half-life [16] [h] | Km [17] [µM] | Activity (MIA PaCa-2 [18]) | Drug uptake [19] | Activity (ASPC1 [23]) | further results
1 | CC(C)[C@]12O[C@H]1[C@@H]1O[C@]13[C@]1(O[C@H]1C[C@H]1C4=C(CC[C@@]13C)C(=O)OC4)[C@@H]2OC(=O)[C@@H](N)Cc1c[nH]c2ccccc12 | Non-Toxic | Active | Active | 5.874 | Not Active | Not Active | Active | Not Active | Active | 5.072 | Active | Not Active | inactive | 8 | Not Active | 6 | 105 | inactive | Not Active | Active | half-life [20]: > 10 h; Drug uptake [21]: Not Active; Km [22]: 96 µM
2 | CC(C)[C@H](N)C(=O)O[C@@H]1[C@@]2(C(C)C)O[C@H]2[C@@H]2O[C@]23[C@]12O[C@H]2C[C@H]1C2=C(CC[C@@]13C)C(=O)OC2 | Non-Toxic | Active | Active | 4.391 | Not Active | Not Active | Active | Not Active | Active | 4.132 | Active | Not Active | inactive | 8 | Not Active | 6 | 130 | inactive | Not Active | Active | half-life [20]: > 10 h; Drug uptake [21]: Not Active; Km [22]: 112 µM
3 | CC(C)[C@]12O[C@H]1[C@@H]1O[C@]13[C@]1(O[C@H]1C[C@H]1C4=C(CC[C@@]13C)C(=O)OC4)[C@@H]2OC(=O)[C@@H](N)CCCCN | Non-Toxic | Active | Active | 3.41 | Not Active | Not Active | Active | Not Active | Active | 3.516 | Active | Not Active | inactive | 8 | Not Active | 6 | 121 | inactive | Not Active | Active | half-life [20]: > 10 h; Drug uptake [21]: Not Active; Km [22]: 124 µM
4 | CC(C)[C@]12O[C@H]1[C@@H]1O[C@]13[C@]1(O[C@H]1C[C@H]1C4=C(CC[C@@]13C)C(=O)OC4)[C@@H]2O [TRIPTOLIDE] | Toxic |  |  |  |  |  |  |  |  |  | Active |  |  |  |  |  |  |  |  | Active | 
